In US8211947B2, “Composition and method for treating and preventing musculoskeletal and connective tissue disorders” (priority 2008, dated 2012):

What was measured:
rheumatoid arthritis = assay: Case study: patient with rheumatoid arthritis treated orally; format: in vivo, human; conditions: same patient, NSAIDs taken during the first 5 weeks of the disease onset
Description: This treatment was complemented with the regular practice of moderate physical exercises every 2-3 days, including exercises with weights, the application of cold or hot compresses, relaxation techniques, elevation of affected body parts, and at least 8 hours of sleep. Pain was treated with acetaminophen when needed. […] Then, the Omega 3-6-9 supplement was removed from the treatment and 100 mg niacin was added (Rite Aid Corporation, Harrisburg, Pa., USA) once a day during a week, twice a day for another week and 3 times daily for one more week (to a final dose of 300 mg/day). […] They never took DMARDs or steroids.

[1] = in fish and flax seed oils; cited from earlier work
[2] = natural vitamin K; cited from earlier work
osteoarthritis = conditions: subjects with OA, 3 g per day; cited from earlier work
[3] = tested on: undercarboxylated osteocalcin; conditions: healthy subjects, per day; cited from earlier work

Question: With O=C(O)Cc1ccccc1Nc1c(Cl)cccc1Cl [diclofenac] as the compound, how does the “benefit of NSAIDs” value (rheumatoid arthritis) read?
Answer: The value was “without any significative beneficial result”.

Question: With CC(C)Cc1ccc(C(C)C(=O)O)cc1 (stereo not drawn) [ibuprofen] as the compound, how does the “benefit of NSAIDs” value (rheumatoid arthritis) read?
Answer: The value was “without any significative beneficial result”.

Question: For vitamin K, which solubility [1] is on record?
Answer: Its solubility is “soluble”.

Question: And the safe dose [2]?
Answer: The safe dose was “up to 15 milligrams per day”.

Question: With NC(=O)c1cccnc1 [nicotinamide] as the compound, how does the “NSAID medication and joint mobility compared with placebo controls” value (osteoarthritis) read?
Answer: Its value is “reduced their non-steroidal anti-inflammatory (NSAID) medication and increased joint mobility significantly”.

Question: Which “daily intake at which circulating undercarboxylated osteocalcin began to decrease” value [3] does the source give for CC1=C(C/C=C(\C)CCC[C@H](C)CCC[C@H](C)CCCC(C)C)C(=O)c2ccccc2C1=O [vitamin K1, 2-methyl-3-phytyl-1-4-naphthoquinone] here?
Answer: Its value is 300 µg.
